Patent US11178823B2, “Systems and methods for using light energy to facilitate penetration of substances in plants” (priority 2014, dated 2021)

Key:
[1] = Uptake and phloem movement of fluorescent test substances applied onto lased citrus leaves (fluorescent microscopy); assay type: in vivo
Text: To illustrate the effectiveness of the methods disclosed herein, a test substance was used to show the enhanced penetration through foliar application. Among test substances, phloem mobile compounds NBDG, a fluorescent analog of glucose (a natural sugar found in plants), and carboxyfluorescin-SE (a membrane permeable substance only fluorescent in live cells) were used in an experiment. Both substances were manually applied onto lased leaves (using a 13×39 dot indentation pattern 801) at a concentration of 5 mg/mL.
FIGS. 8A-8B were observed under fluorescent microscopy and FIG. 8B was taken 10 minutes after the application of 5 μL of NBDG.
Within 2 h, fluorescent NBDG was observed within the lateral veins of the lased leaves (shown in FIGS. 9A-9B) emerging from the application area. FIGS. 9A-9B are fluorescent micrographs of a portion of a lased citrus leaf. […] FIG. 9B is another image showing the NBDG in a minor veins 903 and main vein 905.
It should be appreciated that movement of the foliarly applied NBDG continued down the stem and towards the roots. […] FIGS. 11A-11B show bark sections of young trees. […] The distance between the lased leaves and bark segment 1103 was approximately 20 cm.

HLB bacteria = test: PCR analysis for presence of HLB in leaves of lased and antimicrobial-treated citrus trees; assay type: in vivo; conditions: 2 fluid ounces per tree, 0-29 = HLB detected, 30 and above = no HLB detected; for Presence of HLB using PCR analysis, Sample A: lased and treated leaves; for Presence of HLB using PCR analysis, Sample B: leaves at furthest point from lased leaves, not lased or treated
Experimental: The following experimental data is provided to exemplarily illustrate various aspects of the inventive subject matter presented herein. More specifically, the data illustrates the surprising uptake of antimicrobials to effectively treat a plant. Citrus trees were tested in three groups consisting of a control group (trees 1-6), an antimicrobial plus surfactant group (trees 7-12), and an antimicrobial only group (trees 13-18). The trees in each group were lased and, in some instances, treated with an antimicrobial, and analyzed two weeks later to determine the amount of HLB present in the tree using Polymerase Chain Reaction (“PCR”) analysis. It should be noted that all the trees in this experiment had HLB at the beginning of the experiment. The antimicrobial used was oxytetracycline (FireLine™) that includes a surfactant (Tactit) for the antimicrobial plus surfactant group, and oxytetracycline without a surfactant for the antimicrobial only group. The laser parameters included a jump speed of 2000 mm/s, marking speed 850 mm/s, and marking intensity: 70%, and a pulse frequency of 15000 Hz.
The control group (trees 1-6) was lased, but not treated with any antimicrobials and/or surfactants. With the exception of one tree (tree 7) that was only lased, the antimicrobial plus surfactant group was lased and treated with an antimicrobial that comprised a surfactant. With the exception of one tree (tree 13) that was only lased, the antimicrobial only group was lased and treated with only an antimicrobial (with no surfactant). The trees in each group were lased on only one side of the tree (the side comprising the “A” samples). If an antimicrobial (with or without surfactant) was applied, such antimicrobial was applied to the side of the tree that was lased. The antimicrobials were prepared at 200 ppm, 500 ppm, 1000 ppm, 1500 ppm, and 2000 ppm in a 1 gallon volume. Only 2 fluid ounces per tree (10 fluid ounces per group of trees) was used of each concentration for this experiment.
After two weeks, leaves that were lased and, in some instances, treated with an antimicrobial were sampled and analyzed. Additionally, leaves located at the furthest point from the lased leaves (the side comprising the “B” samples), which were not directly lased and/or treated, were sampled and analyzed. Leaves were grinded and prepared for PCR analysis for detecting the presence of HLB. PCR determines if there is live HLB DNA. PCR analysis amplifies and copies small segments of DNA. It then yields enough sample DNA to run the analysis. With this experiment there are six trees per treatment group (control group, antimicrobial plus surfactant group, and antimicrobial only group). Each tree falls under two ranges for determining HLB content, values 29 and lower are considered HLB positive (greening) and values 30 and over are trees considered HLB negative (non-greening). If the analysis takes over 30 PCR cycles then it cannot find any target HLB DNA. If the analysis runs against the maximum of 40 PCR cycles then it becomes indeterminate and it could not find one copy of HLB. It should be noted that there could be numbers over “30” but still be no presence of HLB because there are only artifacts of dead HLB bacteria DNA in numbers over “30”.

[2] = 200 ppm, without surfactant, tree 14, two weeks
[3] = 500 ppm, without surfactant, tree 15, two weeks
[4] = 1000 ppm, without surfactant, tree 16, two weeks
[5] = 2000 ppm, with surfactant (Tactit), tree 12, two weeks

Structure (SMILES)	Uptake into un-lased control leaf (fluorescence) ([1]; applied to the surface of un-lased leaves)	Time until fluorescence observed in the phloem of bark tissue ([1]; bark approximately 20 cm from the treated lased leaf, young trees)	Time until fluorescence observed within the lateral veins of the lased leaves ([1]; lased citrus leaf, 5 mg/mL, emerging from the application area)	Movement in the leaf four hours after application ([1]; lased citrus leaf, 5 mg/mL, four hours after application)	Uptake into lased leaf (fluorescence) ([1]; lased citrus leaf, 13×39 dot indentation pattern, 5 mg/mL, 5 μL, 10 minutes after application)	Presence of HLB using PCR analysis, Sample A (HLB bacteria; 200 ppm, with surfactant (Tactit), tree 8, two weeks after treatment)	Presence of HLB using PCR analysis, Sample B (HLB bacteria; 200 ppm, with surfactant (Tactit), tree 8, two weeks)	Presence of HLB using PCR analysis, Sample A (HLB bacteria; [2])	Presence of HLB using PCR analysis, Sample B (HLB bacteria; [2])	Presence of HLB using PCR analysis, Sample A (HLB bacteria; 500 ppm, with surfactant (Tactit), tree 9, two weeks)	Presence of HLB using PCR analysis, Sample A (HLB bacteria; [3])	Presence of HLB using PCR analysis, Sample B (HLB bacteria; [3])	Presence of HLB using PCR analysis, Sample A (HLB bacteria; [4])	Presence of HLB using PCR analysis, Sample B (HLB bacteria; [4])	Presence of HLB using PCR analysis, Sample B (HLB bacteria; 1500 ppm, with surfactant (Tactit), tree 11, two weeks)	Presence of HLB using PCR analysis, Sample B (HLB bacteria; 1500 ppm, without surfactant, tree 17, two weeks)	Presence of HLB using PCR analysis, Sample A (HLB bacteria; [5])	Presence of HLB using PCR analysis, Sample B (HLB bacteria; [5])	Presence of HLB using PCR analysis, Sample B (HLB bacteria; 2000 ppm, without surfactant, tree 18, two weeks)
O=[N+]([O-])c1ccc(N[C@H]2C(O)O[C@H](CO)[C@@H](O)[C@@H]2O)c2nonc12 (stereo partly shown) [NBDG]	no fluorescence	≤ 8 h	≤ 2 h	reached and passed the base of the petiole	spread of fluorescence within the lased area														
CN(C)[C@@H]1C(O)=C(C(N)=O)C(=O)[C@@]2(O)C(O)=C3C(=O)c4c(O)cccc4[C@@](C)(O)[C@H]3[C@H](O)[C@@H]12 [oxytetracycline]						30.6	33.5	27.0	26.1	35.4	34.7	26.6	37.8	28.7	36.8	26.2	37.6	36.1	27.6
